Laboratory results as given in US9309242B2, “Substituted pyrido[2,3-b]pyrazines as FGFR kinase inhibitors” (priority 2011, dated 2016).

What was measured:
FGFR2 (h) = FGFR2 (h) (Homo sapiens, UniProt P21802); assay: FGFR2 (enzymatic assay), TR-FRET; type: biochemical; details: enzymatic assay; read-out: FGFR 2 pIC50 (converted)
In short: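 At low ATP (0.4 μM), enzyme activity of human FGFR2 (150 ng/ml) toward biotinylated Flt3 substrate (500 nM) was followed with test compound present. Reactions ran in 50 mM HEPES pH 7.5, 6 mM MnCl2, 1 mM DTT, 0.1 mM Na3VO4, 0.01% Triton-X-100, 1% DMSO.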

[1] = target: Ba/F3-FGFR4-transfected cells (Homo sapiens, UniProt P22455); assay: Ba/F3-FGFR4 cellular proliferation assay, Alamar Blue; type: cell-based
Ba/F3-FGFR4-transfected cells, sequence (P22455 whole entry, change not shown): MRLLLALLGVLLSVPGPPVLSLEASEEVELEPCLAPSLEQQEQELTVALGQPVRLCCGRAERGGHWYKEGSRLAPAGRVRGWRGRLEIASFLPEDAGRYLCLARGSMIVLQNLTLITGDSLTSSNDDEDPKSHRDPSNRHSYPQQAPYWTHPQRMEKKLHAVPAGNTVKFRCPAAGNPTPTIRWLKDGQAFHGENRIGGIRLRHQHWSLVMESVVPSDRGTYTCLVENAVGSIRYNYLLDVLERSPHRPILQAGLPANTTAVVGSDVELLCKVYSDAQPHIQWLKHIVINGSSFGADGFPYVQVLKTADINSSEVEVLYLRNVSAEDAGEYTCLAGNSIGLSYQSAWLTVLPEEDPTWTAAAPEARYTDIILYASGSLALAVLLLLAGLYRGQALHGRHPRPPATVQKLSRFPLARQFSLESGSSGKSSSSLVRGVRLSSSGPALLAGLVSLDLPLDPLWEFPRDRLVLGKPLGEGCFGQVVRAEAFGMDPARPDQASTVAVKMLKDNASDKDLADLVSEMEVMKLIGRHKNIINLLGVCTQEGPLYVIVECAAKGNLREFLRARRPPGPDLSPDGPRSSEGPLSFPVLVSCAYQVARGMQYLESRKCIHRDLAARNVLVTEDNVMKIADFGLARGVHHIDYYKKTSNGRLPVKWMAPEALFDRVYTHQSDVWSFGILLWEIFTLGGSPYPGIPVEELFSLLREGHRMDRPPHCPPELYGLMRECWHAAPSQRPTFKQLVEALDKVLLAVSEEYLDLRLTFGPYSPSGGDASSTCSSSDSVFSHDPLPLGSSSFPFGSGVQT
In short: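 Step one: compound dilutions in DMSO are sprayed into wells. Step two: transfected Ba/F3-FGFR4 cells are added at 20000 per well and incubated 24 hours at 37° C. Step three: Alamar Blue is added for 4 hours and relative fluorescence is measured.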

FGFR4 (h) = FGFR4 (h) (Homo sapiens, UniProt P22455); assay: FGFR4 (enzymatic assay), TR-FRET; type: biochemical; details: FGFR 4 pIC50, enzymatic assay
FGFR4 (h), sequence (P22455 22-802): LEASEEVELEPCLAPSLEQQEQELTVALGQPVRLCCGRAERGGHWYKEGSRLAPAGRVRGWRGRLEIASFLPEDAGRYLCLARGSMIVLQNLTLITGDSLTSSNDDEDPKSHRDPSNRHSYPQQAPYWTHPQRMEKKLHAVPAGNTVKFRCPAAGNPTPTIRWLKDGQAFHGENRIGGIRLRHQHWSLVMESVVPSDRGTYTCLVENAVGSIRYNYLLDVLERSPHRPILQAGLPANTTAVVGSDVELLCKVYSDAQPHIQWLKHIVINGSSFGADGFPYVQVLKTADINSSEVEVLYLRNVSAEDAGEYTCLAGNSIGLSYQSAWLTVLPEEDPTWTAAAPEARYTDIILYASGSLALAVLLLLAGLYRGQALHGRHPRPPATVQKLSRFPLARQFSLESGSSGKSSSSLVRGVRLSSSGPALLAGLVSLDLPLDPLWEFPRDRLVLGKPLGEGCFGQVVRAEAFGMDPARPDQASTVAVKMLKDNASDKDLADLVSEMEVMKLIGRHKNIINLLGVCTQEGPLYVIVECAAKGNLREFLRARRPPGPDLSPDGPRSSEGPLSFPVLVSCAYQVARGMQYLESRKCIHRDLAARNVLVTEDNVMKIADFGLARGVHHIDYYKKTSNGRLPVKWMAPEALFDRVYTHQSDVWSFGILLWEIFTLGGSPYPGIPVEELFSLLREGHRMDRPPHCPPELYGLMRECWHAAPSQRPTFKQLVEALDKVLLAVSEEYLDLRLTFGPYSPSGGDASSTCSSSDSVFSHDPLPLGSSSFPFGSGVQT

FGFR1 (h) = FGFR1 (h) (Homo sapiens, UniProt P11362); assay: FGFR1 (enzymatic assay), TR-FRET; type: biochemical; details: read-out: FGFR 1 pIC50 (converted)
FGFR1 (h), sequence (P11362 22-822): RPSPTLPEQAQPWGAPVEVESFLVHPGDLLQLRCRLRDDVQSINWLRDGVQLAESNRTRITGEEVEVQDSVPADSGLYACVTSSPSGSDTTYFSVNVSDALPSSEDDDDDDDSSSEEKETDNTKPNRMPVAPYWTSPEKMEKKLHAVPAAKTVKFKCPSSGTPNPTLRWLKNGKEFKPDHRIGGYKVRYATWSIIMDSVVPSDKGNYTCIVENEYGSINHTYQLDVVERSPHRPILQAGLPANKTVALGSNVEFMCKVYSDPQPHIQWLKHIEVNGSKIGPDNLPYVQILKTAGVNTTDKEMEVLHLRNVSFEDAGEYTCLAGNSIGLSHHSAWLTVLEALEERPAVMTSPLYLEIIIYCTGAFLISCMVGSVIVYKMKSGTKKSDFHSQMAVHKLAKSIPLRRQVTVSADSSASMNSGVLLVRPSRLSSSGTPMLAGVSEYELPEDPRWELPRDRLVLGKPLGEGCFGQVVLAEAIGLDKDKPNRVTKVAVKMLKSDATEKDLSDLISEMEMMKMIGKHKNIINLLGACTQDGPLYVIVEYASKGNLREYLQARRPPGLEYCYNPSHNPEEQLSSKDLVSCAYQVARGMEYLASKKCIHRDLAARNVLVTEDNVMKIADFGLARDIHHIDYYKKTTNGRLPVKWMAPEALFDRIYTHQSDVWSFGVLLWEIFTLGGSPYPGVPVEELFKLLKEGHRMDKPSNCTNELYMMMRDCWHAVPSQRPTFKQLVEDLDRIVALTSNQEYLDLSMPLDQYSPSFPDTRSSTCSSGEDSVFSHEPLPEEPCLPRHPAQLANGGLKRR

FGFR2 (h), sequence (P21802 22-821): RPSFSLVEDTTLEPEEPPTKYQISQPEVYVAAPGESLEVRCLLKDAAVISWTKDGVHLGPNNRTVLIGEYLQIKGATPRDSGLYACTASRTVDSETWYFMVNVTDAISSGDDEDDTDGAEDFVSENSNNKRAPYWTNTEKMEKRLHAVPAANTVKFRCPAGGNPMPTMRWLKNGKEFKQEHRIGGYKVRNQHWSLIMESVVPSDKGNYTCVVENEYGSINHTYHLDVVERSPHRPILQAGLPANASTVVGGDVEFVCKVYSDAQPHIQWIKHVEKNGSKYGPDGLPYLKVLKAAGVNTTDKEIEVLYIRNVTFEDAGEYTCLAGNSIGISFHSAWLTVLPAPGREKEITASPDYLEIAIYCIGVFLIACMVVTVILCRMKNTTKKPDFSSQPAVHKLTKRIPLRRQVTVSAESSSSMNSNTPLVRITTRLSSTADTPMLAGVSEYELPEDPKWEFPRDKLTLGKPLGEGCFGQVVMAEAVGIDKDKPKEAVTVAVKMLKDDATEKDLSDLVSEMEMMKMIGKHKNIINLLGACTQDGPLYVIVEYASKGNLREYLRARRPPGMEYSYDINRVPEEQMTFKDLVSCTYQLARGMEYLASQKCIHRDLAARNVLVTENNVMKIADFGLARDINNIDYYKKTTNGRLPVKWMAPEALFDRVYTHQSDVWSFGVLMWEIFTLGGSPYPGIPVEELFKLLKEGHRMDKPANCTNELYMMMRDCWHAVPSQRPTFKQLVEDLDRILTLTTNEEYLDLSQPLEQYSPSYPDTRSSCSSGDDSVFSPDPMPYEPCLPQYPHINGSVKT

SMILES | IC50 (FGFR2 (h)) | BAF3-FGFR4 pIC50 [1] | IC50 (FGFR4 (h)) | IC50 (FGFR1 (h))
COc1cc(/N=c2\ccc3ncc(-c4cnn(C)c4)nc3n2CC2CCC(=O)N2)cc(OC)c1 (stereo not shown) [Compound 248] | 3.63 nM | 6.25 | 8.13 nM | 5.13 nM
COc1cc(OC)c(F)c(N(CC2CCOC2)c2ccc3ncc(-c4cnn(C)c4)nc3n2)c1 (single isomer, unassigned) [Compound 170] | 2.14 nM | 6.49 | 4.9 nM | 2.34 nM
COc1cc(/N=c2\ccc3ncc(-c4cnn(C)c4)nc3n2CCN2CCCC2=O)c(F)c(OC)c1 [Compound 156] | 2.69 nM | 6.68 | 6.92 nM | 2.95 nM
COc1cc(/N=c2\ccc3ncc(-c4cnn(C)c4)nc3n2CC2CCC(=O)N2CCO)c(F)c(OC)c1 (single isomer, unassigned) [Compound 219] | 2.24 nM | 6.78 | 1.91 nM | 0.813 nM
COc1cc(OC)c(F)c(N(Cc2nc(CO)c[nH]2)c2ccc3ncc(-c4cnn(C)c4)nc3n2)c1 [Compound 232] | ~2.75 nM | 6.96 | 1.86 nM | 0.813 nM
COc1cc(OC)cc(N(Cc2nc(OC)cc(OC)n2)c2ccc3ncc(-c4cnn(C)c4)nc3n2)c1 [Compound 174] | 6.92 nM | 5.45 | 77.6 nM | ~39.8 nM
COc1cc(/N=c2\ccc3ncc(-c4cnn(C)c4)nc3n2CCN2CCOCC2)c(F)c(OC)c1 [Compound 148] | 1.91 nM | 7.21 | 1.62 nM | 1.7 nM
Cn1cc(-c2cnc3ccc(N(Cc4ncc[nH]4)c4c(F)c(F)cc(F)c4F)nc3n2)cn1 [Compound 175] | 1.91 nM | 6.75 | 4.79 nM | 4.07 nM
COc1cc(OC)c(F)c(N(CCN2CCOCC2)c2ccc3ncc(-c4cnn(C)c4)nc3n2)c1 [Compound 149] | 3.09 nM | 7.12 | 5.13 nM | 2.45 nM
COc1cc(OC)c(F)c(N(Cc2ncc[nH]2)c2ccc3ncc(-c4cnn(C(CO)CCl)c4)nc3n2)c1 (stereo not shown) [Compound 209] | 2.4 nM | 7.92 | 1.12 nM | 0.776 nM
COc1cc(/N=c2\ccc3ncc(-c4cnn(C)c4)nc3n2CC2CCCOC2)cc(OC)c1 (stereo not shown) [Compound 165] | 2.4 nM | 7.13 | 2.04 nM | 1.15 nM
COc1cc(OC)c(F)c(N(Cc2cnn(C)c2)c2ccc3ncc(-c4cnn(C)c4)nc3n2)c1 [Compound 195] | 2.04 nM | 7.33 | 0.871 nM | 0.589 nM
COc1cc(OC)cc(N(Cc2nncn2CCO)c2ccc3ncc(-c4cnn(C)c4)nc3n2)c1 [Compound 204] | 11 nM | 5.49 | 60.3 nM | 11.2 nM
COc1cc(OC)cc(N(Cc2ncc[nH]2)c2ccc3ncc(-c4ccn(C)c4)nc3n2)c1 [Compound 198] | 1.07 nM | 8.05 | 0.661 nM | 0.309 nM
COc1cc(OC)c(F)c(N(Cc2ncc[nH]2)c2ccc3ncc(-c4cnn(CC(C)(C)O)c4)nc3n2)c1 [Compound 240] | 2.57 nM | 7.87 | 1.91 nM | 0.912 nM
COc1cc(OC)c(F)c(N(Cc2ncc[nH]2)c2ccc3ncc(-c4cccnc4)nc3n2)c1 [Compound 190a] | 2.04 nM | 7.11 | 2.95 nM | 1.02 nM
